In patent publication US20170215432A1, “SYNERGIZED PLANT EXTRACT/ESSENTIAL OIL BLEND COMPRISING BASIL OIL” (VAMA INC., priority 2014, published 2017):

Test system: Anopheles, Aedes, Stephinsi and Culex mosquito vectors
Assay: Laboratory cage repellency, landing counts on treated sugar-soaked cotton bowls
Assay type: in vivo
Method: Studies were carried out against each individual species in replicates of three in each of the replicate cage, one hundred 3 to 5-day old sugar—fed female mosquitoes were held. Mosquito that are pre-starved for 4 hr or more prior to testing were used for the experiment.
Five plastic bowls with sugar—soaked cotton (10% in water) were placed at four opposing corners and one in the middle of the cage. These bowls were treated with the specified concentration of the composition described in Example 3, one specified concentration of DEET (know synthetic repellent compound as positive control) and one with only sugar-soaked cotton (Negative control). The four treated bowls were placed in four opposing corners while the untreated negative control in the middle on the floor of the cage. Five-minute landing counts were made at 0, 1, 2, 3, 4, and 6 hours with the cups were removed between the exposure intervals. Mean percent repellency for each percent formulation and species was calculated based on the data of the three replicates at the given times of observation.

In the case of `CCN(CC)C(=O)c1cccc(C)c1` [DEET], the “mosquitoes repelled with reference to the control” value (after 4 hrs) is reported as 79% and the mosquitoes repelled (in 4 hrs) is reported as 97%.
